# Values of other authors as cited in patent US11472782B2, “RIP1 inhibitory compounds and methods for making and using the same” (priority 2018, dated 2022).
# Tested on: TNF-alpha induced hypothermia
# Settings: mouse, dose of 30 mg/kg, according to WO 2014/125444
smiles,measurement,value
"CN1C(=O)[C@@H](NC(=O)c2nnc(Cc3ccccc3)[nH]2)COc2ccccc21 [comparative compound, (S)-5-benzyl-N-(5-methyl-4-oxo-2,3,4,5-tetrahydrobenzo[b][1,4]oxazepin-3-yl)-4H-1,2,4-triazole-3-carboxamide]",inhibition of TNF-alpha induced hypothermia,93%
